Results taken from publication PMC4594923, “Food Polyphenols Fail to Cause a Biologically Relevant Reduction of COX-2 Activity” (PLoS ONE, 2015).
pIC50: −log10 of the molar value. “Also recorded” adds a separate entry of the source. Marks after values point to notes of the source that are not given here.

Experiments:
[1] = system: arachidonic acid (AA) cascade; assay: kidney tissue oxylipin/PG levels in LPS induced sepsis in mice;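 note: male C57BL/6N mice challenged with LPS, kidney taken 24 h later, oxylipins quantified by LC-MS after solid-phase extraction of tissue homogenate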
COX–2 = details: different murine colitis models; cited from earlier work
ovine recombinant COX–1 [2] = biological target: T1, ovine recombinant COX–1 (Ovis aries, UniProt P05979); assay: cell-free COX–1 enzyme assay (PGE2 formation, LC-MS); assay type: biochemical; design: purchased Cayman Chemicals/ Biomol, Hamburg, Germany
T1 sequence (P05979 25-600): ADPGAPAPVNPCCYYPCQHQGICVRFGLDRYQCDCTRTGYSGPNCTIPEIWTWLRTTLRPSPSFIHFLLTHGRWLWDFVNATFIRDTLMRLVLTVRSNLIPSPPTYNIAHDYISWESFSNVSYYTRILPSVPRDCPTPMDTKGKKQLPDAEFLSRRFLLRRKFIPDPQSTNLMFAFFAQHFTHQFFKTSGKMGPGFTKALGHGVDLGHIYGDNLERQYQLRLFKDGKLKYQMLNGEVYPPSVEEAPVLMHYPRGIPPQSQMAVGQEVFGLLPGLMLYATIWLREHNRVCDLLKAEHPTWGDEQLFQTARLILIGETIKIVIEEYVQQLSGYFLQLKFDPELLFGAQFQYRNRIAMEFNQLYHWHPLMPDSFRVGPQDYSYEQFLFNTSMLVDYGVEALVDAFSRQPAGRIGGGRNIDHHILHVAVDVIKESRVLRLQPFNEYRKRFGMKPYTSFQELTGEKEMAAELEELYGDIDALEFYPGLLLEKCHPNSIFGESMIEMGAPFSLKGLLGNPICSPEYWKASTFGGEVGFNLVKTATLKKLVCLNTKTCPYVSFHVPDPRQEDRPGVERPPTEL

[3] = system: arachidonic acid (AA) cascade; assay: plasma oxylipin/PG levels in LPS induced sepsis in mice;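 for all read-outs here: male C57BL/6N mice given LPS, plasma oxylipins quantified by LC-MS after solid-phase extraction, pretreatment or vehicle given intraperitoneally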; assay type: in vivo, C57BL/6N mice; details: mice, 24 h after LPS, vs. LPS group; for plasma PGE2 level: compound i. p. 100 mg/kg bw 2 h before LPS (10 mg/kg bw i. p.)
ovine recombinant COX–1 [4] = biological target: T1, ovine recombinant COX–1; details: based on PGE2 formation, n=3, same assay conditions; cited from earlier work
COX–2 protein [5] = details: Western Blot, same assay conditions; cited from earlier work
COX–2 protein [6] = details: Western Blot, same assay conditions; cited from earlier work; remark: listed apart in the source
[7] = kidney tissue 24 h after LPS treatment, LPS +, mean
[8] = kidney tissue 24 h after LPS treatment, LPS +, mean, < = below LOQ
[9] = mice, compound i. p. 100 mg/kg bw 2 h before LPS, 24 h after LPS, vs. LPS group

## Oc1ccc(/C=C/c2cc(O)cc(O)c2)cc1 [Resveratrol, resveratrol]
[1]; [7]
  1a,1b-dihomo-PGF2α: 3.9^‡ nM
  4,5-DiHDPE: 15 nM
  4-HDHA: 16 nM
  5(6)-EpETrE: 66 nM
  5,6-DiHETrE: 1.5 nM
  5-HEPE: 1.1 nM
  5-HETE: 12 nM
  5-oxo-ETE: 17 nM
  6-keto-PGF1α: 80^* nM
  7,8-DiHDPE: 1.7 nM
  7-HDHA: 2.7 nM
  8(9)-EpETrE: 15 nM
  8,9-DiHETrE: 1.6 nM
  8-HDHA: 16 nM
  8-HETE: 4.2 nM
  8-iPF2a: 3.2^‡ nM
  9(10)-EpODE: 8.2 nM
  9(10)-EpOME: 81 nM
  9(10)-Epoxystearic acid: 40 nM
  9,10,13-TriHOME: 7.4 nM
  9,10-DiHODE: 1.3 nM
  9,10-DiHOME: 22 nM
  9,10-Dihydroxystearic acid: 60 nM
  9,12,13-TriHOME: 45 nM
  9-HETE: 3.1 nM
  9-HODE: 350^* nM
  9-HOTrE: 3.9 nM
  9-oxo-ODE: 43 nM
  10(11)-EpDPE: 30 nM
  10,11-DiHDPE: 2.3 nM
  10-HDHA: 3.5 nM
  11(12)-EpETE: 1.5 nM
  11(12)-EpETrE: 35 nM
  11,12-DiHETrE: 2.6 nM
  11-HDHA: 4.9 nM
  11-HETE: 31^‡ nM
  12(13)-EpODE: 3.4 nM
  12(13)-EpOME: 59 nM
  12,13-DiHOME: 48 nM
  12-HEPE: 2.1 nM
  12-HETE: 24 nM
  13(14)-EpDPE: 24 nM
  13,14-DiHDPE: 3.2 nM
  13,14-dihydro-15-keto-PGF2α: 4.3^‡ nM
  13-HDHA: 11^‡ nM
  13-HODE: 270 nM
  13-HOTrE: 3.6 nM
  13-oxo-ODE: 6.1 nM
  14(15)-EpETE: 1.7 nM
  14(15)-EpETrE: 28 nM
  14,15-DiHETE: 0.62 nM
  14,15-DiHETrE: 7.1 nM
  14-HDHA: 12 nM
  15(16)-EpODE: 24 nM
  15(S)-HETrE: 7.4^‡ nM
  15,16-DiHODE: 20 nM
  15-HETE: 38^‡ nM
  15-oxo-ETE: 7.5 nM
  16(17)-EpDPE: 23 nM
  16,17-DiHDPE: 8.5 nM
  16-HDHA: 6.9 nM
  17(18)-EpETE: 2.5 nM
  17,18-DiHETE: 2.6^* nM
  17-HDHA: 17 nM
  18-HEPE: 1.3 nM
  19(20)-EpDPE: 43 nM
  19,20-DiHDPE: 68 nM
  20-HDHA: 19 nM
  20-HEPE: 5.3 nM
  EKODE: 45 nM
  PGD2: 20^† nM
  PGE1: 11^† nM
  PGE2: 210^‡ nM
  PGF1α: 6.2^† nM
  PGF2α: 70^‡ nM
  TXB2: 3.8^† nM
[1]; [8]
  5,6-DiHETE: < 0.25 nM
  5-iPF2α: < 1.0 nM
  8(9)-EpETE: < 1.0 nM
  12,13-DiHODE: < 2.0 nM
  13,14-dihydro-15-keto-PGE1: 0.6 nM
  20-HETE: < 2.7 nM
  PGD1: 0.72 nM
[1]; kidney tissue 24 h after LPS treatment, LPS +, mean, second listing of PGF2α (r9)
  PGF2α: 70 nM
[1]; [9]
  kidney 6-keto-PGF1α level: increased
  kidney 8-iPGF2α level: increased
  kidney 13,14-dihydro-15-keto-PGE1 level: increased
  kidney PGE2 level: increased
  kidney PGF2α level: increased
COX–2
  COX–2 expression and PGE2 production: reduced COX–2 expression and PGE2 production
Ovine recombinant COX–1 [2]
  pIC50: 6.31
  effect on COX–1 dependent PGE2 formation, cell-free enzyme assay: dose-dependently decreased; also recorded: inhibited
[3]
  plasma PGE2 level: increased
[3]; listed as resveratrol
  plasma PGE2 level: elevated
[3]; compound i. p. 100 mg/kg bw 2 h before LPS
  sum of linoleic acid (LA) derived epoxy-metabolites in plasma: decrease

## C[C@@H]1C[C@H]2[C@@H]3CCC4=CC(=O)C=C[C@]4(C)[C@@]3(F)[C@@H](O)C[C@]2(C)[C@@]1(O)C(=O)CO [dexamethasone]
Ovine recombinant COX–1 [4]
  IC50 (95% CI), cell-free – COX-1: no effect (up to 100 µM)
COX–2 protein [5]
  COX-2 Expression, primary monocytes: 1 µM - 3 nM: COX-2 ↓
COX–2 protein [6]
  COX-2 Expression, HCA-7: no effect (up to 100 µM)
